# “Also recorded” adds a separate entry of the source.
# Tested on: anthers of B. rapa x B. oleracea cross (F1)
# Experiment: Opening of anthers after treating immature flower buds of the AC hybrid
# Type: in vivo, Brassica rapa x Brassica oleracea interspecific hybrid
# Conditions: 20 nM; F1 of this cross normally does not form open anthers
# Source text: Alternatively or in addition, preferably in the provided first seed plant, at least about 2%, 4%, 6%, 8%, 10%, 15%, 20%, 25%, 30%, 35%, 40%, 45%, 50%, 55%, 60%, 65%, 70%, 75%, 80%, 85%, 90%, 95% or 100% of the anthers remain closed upon pollen maturation. Preferably, less than about 95%, 90%, 85%, 80%, 75%, 70%, 65%, 60%, 55%, 50%, 45%, 40%, 35%, 30%, 25%, 20%, 15%, 10%, 8%, 6%, 4%, 2% or less than about 1% of the anthers open upon pollen maturation.
compound,measurement,value
"NC1=NC(=O)C(=Cc2ccc(O)cc2)S1 [Mirin, 2-Amino-5-[(4-hydroxyphenyl)methylene]-4(5H)-thiazolone]",opening of anthers,open anther; also recorded: opening of anthers

# Reference: patent US20240324531A1, “METHOD TO INCREASE POLLEN FERTILITY” (Keygene N.V., priority 2021, published 2024)
